Measured values reported in ChEMBL document CHEMBL1142793, “Lead optimization of 4-(dimethylamino)quinazolines, potent and selective antagonists for the melanin-concentrating hormone receptor 1” (Bioorg Med Chem Lett, 2005).

Experiments:
[1] = biological target: T1, Neuropeptide Y receptor type 5 (Homo sapiens, UniProt Q15761); experiment: Inhibitory activity against neuropeptide Y receptor type 5 by using [125I]PYY as radioligand expressed in COS-1 cells; assay type: cell-based
T1 sequence (Q15761 whole entry): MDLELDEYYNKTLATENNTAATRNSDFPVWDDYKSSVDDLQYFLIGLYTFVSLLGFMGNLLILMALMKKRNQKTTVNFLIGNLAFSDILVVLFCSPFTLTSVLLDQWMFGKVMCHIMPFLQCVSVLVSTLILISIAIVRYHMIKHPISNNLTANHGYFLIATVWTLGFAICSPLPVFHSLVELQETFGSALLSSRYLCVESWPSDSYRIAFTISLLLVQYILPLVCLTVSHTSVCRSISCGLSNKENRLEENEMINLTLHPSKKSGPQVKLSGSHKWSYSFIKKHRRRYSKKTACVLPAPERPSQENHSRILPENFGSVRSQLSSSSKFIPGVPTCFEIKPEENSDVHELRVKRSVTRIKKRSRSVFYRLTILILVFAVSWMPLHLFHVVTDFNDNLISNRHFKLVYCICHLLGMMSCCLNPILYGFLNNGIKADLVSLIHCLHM

[2] = biological target: T2, Alpha-2A adrenergic receptor (Homo sapiens, UniProt P08913); experiment: Inhibitory activity against alpha-2A adrenergic receptor by using [3H]MK-912 as radioligand expressed in COS-1 cells; assay type: cell-based
T2 sequence (P08913 whole entry): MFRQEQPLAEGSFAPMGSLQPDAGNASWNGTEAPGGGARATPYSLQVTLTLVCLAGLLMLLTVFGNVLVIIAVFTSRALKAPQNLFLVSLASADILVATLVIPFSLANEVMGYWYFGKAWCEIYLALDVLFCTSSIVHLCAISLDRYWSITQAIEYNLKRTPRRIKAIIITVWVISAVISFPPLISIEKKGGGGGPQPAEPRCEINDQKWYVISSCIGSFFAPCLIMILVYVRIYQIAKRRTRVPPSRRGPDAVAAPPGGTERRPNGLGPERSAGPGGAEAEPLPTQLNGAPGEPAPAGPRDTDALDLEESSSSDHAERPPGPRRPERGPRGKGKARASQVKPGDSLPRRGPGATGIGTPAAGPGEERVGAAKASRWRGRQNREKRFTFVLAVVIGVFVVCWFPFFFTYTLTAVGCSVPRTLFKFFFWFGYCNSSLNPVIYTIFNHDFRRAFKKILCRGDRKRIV

[3] = biological target: Melanin-concentrating hormone receptor 1 (Homo sapiens, UniProt Q99705); experiment: Inhibitory activity against human CA-MCH-R1 (Melanin-concentrating hormone receptor 1) by using [125I](Phe13,Tyr19)MCH as radioligand expressed in HEK293 cells; assay type: cell-based
[4] = species on record: Homo sapiens; experiment: Selective ratio against Alpha2A adrenergic receptor to that of MCH

Chain of Melanin-concentrating hormone receptor 1 (Q99705 whole entry): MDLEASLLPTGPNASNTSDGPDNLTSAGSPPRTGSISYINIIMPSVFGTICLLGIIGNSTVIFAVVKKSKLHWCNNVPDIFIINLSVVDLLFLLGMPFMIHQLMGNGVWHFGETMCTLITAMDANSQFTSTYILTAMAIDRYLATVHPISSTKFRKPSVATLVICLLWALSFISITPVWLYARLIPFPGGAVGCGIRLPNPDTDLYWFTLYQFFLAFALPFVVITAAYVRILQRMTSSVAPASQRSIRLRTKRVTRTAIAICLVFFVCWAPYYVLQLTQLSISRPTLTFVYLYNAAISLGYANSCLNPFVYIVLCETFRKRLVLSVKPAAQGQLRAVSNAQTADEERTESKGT

Row | SMILES | IC50 [1] | IC50 [2] | IC50 [3] | Selectivity [4]
1 | CN(C)c1nc(NC2CCC(CNCc3ccc(Br)cc3OC(F)(F)F)CC2)nc2ccccc12 (cis isomer) | 2400 nM | 360 nM | 4.9 nM | –
2 | CN(C)c1nc(NCC2CCC(CN(C)S(=O)(=O)c3ccc(Br)cc3OC(F)(F)F)CC2)nc2ccccc12 (stereo unspecified) | 460 nM | 34 nM | 5800 nM | –
3 | CN(C)c1nc(NC[C@H]2CC[C@H](CNS(=O)(=O)c3ccc(Br)cc3OC(F)(F)F)CC2)nc2ccccc12 | 2.7 nM | 7.7 nM | 160 nM | –
4 | CN(C)c1nc(N[C@H]2CC[C@@H](NC(=O)c3ccc(Cl)c(Cl)c3)CC2)nc2ccccc12 | – | 47 nM | 5 nM | 9.4
5 | CN(C)c1nc(NC2CCN(Cc3ccc(Br)cc3OC(F)(F)F)CC2)nc2ccccc12 | > 1000 nM | 520 nM | 320 nM | –
6 | COc1cc(OC)cc(C(=O)N[C@H]2CC[C@@H](Nc3nc(N(C)C)c4ccccc4n3)CC2)c1 | – | 71 nM | 2 nM | 36
7 | CN(Cc1ccc(Br)cc1OC(F)(F)F)CC1CCC(CNc2nc(N(C)C)c3ccccc3n2)CC1 (stereo unspecified) | > 1000 nM | 44 nM | 5600 nM | –
8 | CN(C)c1nc(N[C@H]2CC[C@@H](NC(=O)c3cccc([N+](=O)[O-])c3)CC2)nc2ccccc12 | – | 97 nM | 6.8 nM | 14
9 | CN(C)c1nc(N[C@H]2CC[C@@H](NC(=O)c3cccc(C(F)(F)F)c3)CC2)nc2ccccc12 | – | 60 nM | 15 nM | 4
10 | CN(C)c1nc(NC2CCN(S(=O)(=O)c3ccc(Br)cc3OC(F)(F)F)CC2)nc2ccccc12 | – | 170 nM | 250 nM | –
11 | CN(C)c1nc(NCC2CCC(CNCc3ccc(Br)cc3OC(F)(F)F)CC2)nc2ccccc12 (stereo unspecified) | 560 nM | 31 nM | 960 nM | –
12 | CN(C)c1nc(N[C@H]2CC[C@@H](NC(=O)c3ccc(F)c(F)c3)CC2)nc2ccccc12 | 2700 nM | 260 nM | – | –
13 | CN(C)c1nc(N[C@H]2CC[C@@H](NC(=O)c3ccccc3F)CC2)nc2ccccc12 | – | – | 170 nM | –
14 | CN(C)c1nc(N[C@H]2CC[C@@H](CNS(=O)(=O)c3ccc(Br)cc3OC(F)(F)F)CC2)nc2ccccc12 | 120 nM | 130 nM | 140 nM | –
15 | CN(C)c1nc(NC2CCC(NCc3ccc(Br)cc3OC(F)(F)F)CC2)nc2ccccc12 (stereo unspecified) | > 1000 nM | 170 nM | 35 nM | –
16 | CN(C)c1nc(N[C@H]2CC[C@@H](NC(=O)c3cccc(Cl)c3)CC2)nc2ccccc12 | – | 76 nM | 4.5 nM | 17
17 | CN(C)c1nc(NCC2CCC(CNC(=O)c3ccc(Br)cc3OC(F)(F)F)CC2)nc2ccccc12 (stereo unspecified) | 470 nM | 9.9 nM | 1500 nM | –
18 | CN(C)c1nc(N[C@H]2CC[C@@H](NC(=O)c3ccc(F)c(F)c3F)CC2)nc2ccccc12 | – | 200 nM | 38 nM | 5.3
19 | CN(C)c1nc(N[C@H]2CC[C@@H](NC(=O)c3cccc(Br)c3)CC2)nc2ccccc12 | – | 63 nM | 5.9 nM | 11
20 | CN(C)c1nc(N[C@H]2CC[C@@H](NC(=O)c3cccc(C#N)c3)CC2)nc2ccccc12 | – | 150 nM | 10 nM | 15
21 | Cc1cccc(C(=O)N[C@H]2CC[C@@H](Nc3nc(N(C)C)c4ccccc4n3)CC2)c1 | – | 110 nM | 4.6 nM | 24
22 | CN(C)c1nc(N[C@H]2CC[C@@H](NC(=O)c3cccc(F)c3)CC2)nc2ccccc12 | – | 130 nM | 9.5 nM | 14
23 | CN(C)c1nc(N[C@H]2CC[C@@H](NC(=O)c3ccc(F)cc3)CC2)nc2ccccc12 | – | 150 nM | 9.4 nM | 16
24 | CN(C)c1nc(NC2CCC(NC(=O)c3ccc(Br)cc3OC(F)(F)F)CC2)nc2ccccc12 (cis isomer) | > 1000 nM | 390 nM | 160 nM | 2.4
25 | CN(C)c1nc(NC2CCC(CNC(=O)c3ccc(Br)cc3OC(F)(F)F)CC2)nc2ccccc12 (cis isomer) | 1800 nM | 570 nM | 79 nM | –
26 | CN(C)c1nc(NC2CCN(C(=O)c3ccc(Br)cc3OC(F)(F)F)CC2)nc2ccccc12 | – | – | 1200 nM | –
27 | CN(C)c1nc(N[C@H]2CC[C@@H](NS(=O)(=O)c3ccc(Br)cc3OC(F)(F)F)CC2)nc2ccccc12 | 880 nM | 57 nM | 83 nM | –
